Laboratory results taken from patent US6130324A, “Amphipathic oligonucleotides and polynucleotides having potent antiviral activity” (University of Utah Research Foundation, priority 1999, dated 2000).
Like-named read-outs stand apart in the source and are kept apart here. Blank lines part the entries; values can stand above or below the compound they belong to.

Key:
HCMV strain AD-169 = assay: Anti-HCMV activity, AD-169 strain in MRC-5 cell line; format: cell-based, human cytomegalovirus; details: HCMV AD-169 in MRC-5 cell line; for EC50: Human betaherpesvirus 5, AD169, MRC5, read-out: ED50 (50% effective dose)
Experimental: (§1) Assays of anti-HCMV activity were conducted by Drs. R. Sidwell and J. Huffman at Utah State University with the AD-169 strain in the MRC-5 cell line as described in Huffman et al. (1994), Nucleosides and Nucleotides 33:607-613.

[1] = Cytotoxicity in the anti-HCMV assay (MRC-5 cell line); format: cell-based; details: human, mrc-5 cells
Experimental: as §1

HIV strain RF = assay: Inhibition of cytopathic effect of HIV strain RF in CEM-SS cells; format: cell-based, human immunodeficiency virus
Experimental: (§2) Assays for anti-HIV activity of poly(1-propargylinosineic) prepared according to the procedure of Examples 1-4 were conducted by Dr. Robert Buckheit, Jr. of the Southern Research Institute with strains of HIV-1 and HIV-2 in various cell lines and with cell free preparations of reverse transcriptase as previously described, Broom et al. (1995), J. Med. Chem. 38:3253-3257.

HIV strain SK1 = assay: Inhibition of cytopathic effect of HIV strain SK1 in CEM-SS cells; format: cell-based, human immunodeficiency virus
Experimental: as §2

HIV strain ROD = assay: Inhibition of cytopathic effect of HIV strain ROD in CEM-SS cells; format: cell-based, human immunodeficiency virus
Experimental: as §2

HIV strain IIIB = assay: Inhibition of cytopathic effect of HIV strain IIIB in CEM-SS cells; format: cell-based, human immunodeficiency virus; details: polynucleotide concentration based on average molecular weight of 100,000, read-out: EC50 against cytopathic effect, virus IIIB
Experimental: as §2

[2] = test system: reverse transcriptase (RT); assay: Inhibition of reverse transcriptase in a cell free supernate; format: biochemical, human immunodeficiency virus; details: concentrations based on average molecular weight of 100,000
Experimental: as §2

MRC-5 cell line = assay: Cytotoxicity in the anti-HCMV assay (MRC-5 cell line); format: cell-based; details: MRC-5 cell line
Experimental: as §1

[3] = polynucleotide concentration based on average molecular weight of 100,000 daltons

Compound: Nc1nc(O)c2ncn(COC(CO)CO)c2n1 [Ganciclovir, ganciclovir]
TI = CD50 / ED50 (HCMV strain AD-169): > 417 | EC50 (HCMV strain AD-169; [3]): 9400 nM | EC50 (HCMV strain AD-169): 2.4 µg/mL | CC50 [1]: > 1000 µg/mL

EC50 (HIV strain RF; Human immunodeficiency virus 1, polynucleotide concentration based on average molecular weight of 100,000, read-out: EC50 against cytopathic effect, virus RF): 39 nM | EC50 (HIV strain SK1; Human immunodeficiency virus 1, polynucleotide concentration based on average molecular weight of 100,000, read-out: EC50 against cytopathic effect, virus SK1): 25.4 nM | EC50 (HIV strain ROD; Human immunodeficiency virus 1, polynucleotide concentration based on average molecular weight of 100,000, read-out: EC50 against cytopathic effect, virus ROD): 62.1 nM | EC50 (HIV strain IIIB; Human immunodeficiency virus 1, IIIB): 69.3 nM
Compound: Nc1ccn([C@H]2CC[C@@H](CO)O2)c(=O)n1 [ddC, reference compound]

Compound: poly(1-propargylinosinic acid)
EC50 [2]: 223 nM | EC50 (HIV strain RF; Table 2, RF strain, concentrations based on average molecular weight of 100,000, read-out: CEM-SS (RF), EC50): 131 nM | EC50 (HIV strain RF; polynucleotide concentration based on average molecular weight of 100,000, read-out: EC50 against cytopathic effect, virus RF): 131 nM | ED50 (50% effective dose) (HCMV strain AD-169): 1.9 µg/mL | ED50 (50% effective dose), molar (HCMV strain AD-169; [3]): 19 nM | CD50 (50% cytotoxic dose) (MRC-5 cell line): 316 µg/mL | CD50 (50% cytotoxic dose), molar (MRC-5 cell line; concentration based on average molecular weight of 100,000 daltons): 3.16 µM | EC50 (HIV strain SK1; polynucleotide concentration based on average molecular weight of 100,000, read-out: EC50 against cytopathic effect, virus SK1): 44.4 nM | EC50 (HIV strain ROD; polynucleotide concentration based on average molecular weight of 100,000, read-out: EC50 against cytopathic effect, virus ROD): 57.9 nM | EC50 (HIV strain IIIB): 263 nM
